This passage reports IC50 results from patent publication US20260193268A1, “TRICYCLIC PI3Ka INHIBITOR, PREPARATION METHOD THEREFOR, AND PHARMACEUTICAL USE THEREOF” (WIGEN BIOMEDICINE TECHNOLOGY (SHANGHAI) CO., LTD., priority 2022, published 2026).

Assay [1] concerns MCF-7 cells (with PI3Kα E545K mutation). Put plainly: In vitro inhibition of MCF-7 cell proliferation (CellTiter-Lumi). In kind it is cell-based. Conditions: Homo sapiens, MCF7, 144 h. The protocol:
Biological Example 3. Assay for In Vitro Inhibition of MCF-7 Cell Proliferation by Compounds of the Present Disclosure
MCF-7 cells (with PI3Kα E545K mutation) were seeded into a 384-well plate (Fisher 142762) at 2000 cells per well. The next day, serially diluted compounds were added, and 144 h after the addition, CellTiter-Lumi (Beyotime C0068XL) was added to measure the ATP content in the cells. The growth of the cells was evaluated, and the IC50 for the inhibition of cell growth by the compounds was calculated.

For assay [2], the system named is HCC1954 cells (with PI3Kα H1047R mutation). Briefly: In vitro inhibition of HCC1954 cell proliferation (CellTiter-Lumi). Particulars: Homo sapiens, HCC1954, 144 h, HCC1954 cells, 144 h, CellTiter-Lumi. Type of assay: cell-based. The protocol:
Assay for In Vitro Inhibition of HCC1954 Cell Proliferation by Compounds of the Present Disclosure
The growth of the cells was evaluated, and the IC50 for the inhibition of cell growth by the compounds was calculated.

Where [3] appears, read: numeric values, read-out: Inhibitory activity against MCF-7 cells (IC50).
Where [4] appears, read: numeric values, read-out: Inhibitory activity against HCC1954 cells (IC50).
[5] abbreviates: class symbols, read-out: Inhibitory activity against MCF-7 cells (IC50), class symbols.
Where [6] appears, read: class symbols, read-out: Inhibitory activity against HCC1954 cells (IC50), class symbols.

What is called IC50 is the point on the concentration scale where inhibition reaches its midpoint.

Where two headings read alike, the source gives them in different places. Where only a bound is given, the exact number is not on record here.

Regarding `C=CC(=O)Nc1ccc(N2CC(N3CCN(c4ccc5c(c4)-c4nc(N6C(=O)OC[C@H]6C(F)F)cn4CCO5)CC3)C2)cn1` [Compound 121], the results for the half-maximal inhibitory concentration (IC50) in assay [1] (setting [3]) and in assay [2] (setting [4]) were 0.0002 µM and 0.003 µM, respectively.
`CC(C)(N)/C=C/C(=O)Nc1ccc(N2CC(N3CCN(c4ccc5c(c4)-c4nc(N6C(=O)OC[C@H]6C(F)F)cn4CCO5)CC3)C2)cc1` [Compound 276]: the IC50 in assay [1] (setting [5]) and in assay [2] (setting [6]) was under 0.05 µM each time.
For `C=CC(=O)Nc1ccc(N2CC(N3CCN(c4ccc5c(c4)-c4nc(N6C(=O)OC[C@H]6CF)cn4CCO5)CC3)C2)cc1` [Compound 176], the IC50 came to 0.0002 µM in assay [1] (setting [3]) and 0.0049 µM in assay [2] (setting [4]).
As for `CC(C)(C=C(C#N)C(=O)Nc1ccc(N2CC(N3CCN(c4ccc5c(c4)-c4nc(N6C(=O)OC[C@H]6C(F)F)cn4CCO5)CC3)C2)c(F)c1)N1CC2(COC2)C1` [Compound 228], the concentration for half-maximal inhibition (IC50) in assay [1] (setting [5]) and in assay [2] (setting [6]) was under 0.05 µM in each case.
Consider `CC(C)(N)C=C(C#N)C(=O)Nc1ccc(N2CC(N3CCN(c4ccc5c(c4)-c4nc(N6C(=O)OC[C@H]6C(F)F)cn4CCO5)CC3)C2)c(Cl)c1` [Compound 351], for which the IC50 in assay [1] (setting [5]) and in assay [2] (setting [6]) was under 0.05 µM each time.
`COCCNC(C)(C)C=C(C#N)C(=O)Nc1ccc(N2CC(N3CCN(c4ccc5c(c4)-c4nc(N6C(=O)OC[C@H]6C(F)F)cn4CCO5)CC3)C2)nn1` [Compound 303]: the IC50 in assay [1] (setting [5]) and in assay [2] (setting [6]) was under 0.05 µM in each case.
For `CN(C1COC1)C(C)(C)C=C(C#N)C(=O)Nc1ccc(N2CC(N3CCN(c4ccc5c(c4)-c4nc(N6C(=O)OC[C@H]6C(F)F)cn4CCO5)CC3)C2)nc1` [Compound 238], the 50% inhibitory concentration (IC50) in assay [1] (setting [5]) and in assay [2] (setting [6]) was under 0.05 µM throughout.
As to `C=CC(=O)Nc1ccc(C#CC2CCN(c3ccc4c(c3)-c3nc(N5C(=O)OC[C@H]5C(F)F)cn3CCO4)CC2)cc1` [Compound 179], the 50% inhibitory concentration (IC50) in assay [1] (setting [5]) and in assay [2] (setting [6]) was 0.05 to 0.1 µM throughout.
On to `C=CC(=O)Nc1ccc2c(c1)CCN2CCN1CCN(c2ccc3c(c2)-c2nc(N4C(=O)OC[C@H]4C(F)F)cn2CCO3)CC1` [Compound 205], for which the IC50 in assay [1] (setting [5]) is under 0.05 µM; in assay [2] (setting [6]), 0.05 to 0.1 µM.
Taken in the same sequence, the figures for `CN(C)C/C=C/C(=O)Nc1ccc(N2CC(N3CCN(c4ccc5c(c4)-c4nc(N6C(=O)OC[C@H]6C(F)F)cn4CCO5)CC3)C2)nc1` [Compound 285] were under 0.05 µM and under 0.05 µM.
Taken in the same sequence, the figures for `N#CC(=Cc1ccccc1)C(=O)Nc1ccc(N2CC(N3CCN(c4ccc5c(c4)-c4nc(N6C(=O)OC[C@H]6C(F)F)cn4CCO5)CC3)C2)cc1` [Compound 394] were under 0.05 µM and under 0.05 µM.
For `COCCN1CCN(C(C)(C)C=C(C#N)C(=O)Nc2ccc(N3CC(N4CCN(c5ccc6c(c5)-c5nc(N7C(=O)OC[C@H]7C(F)F)cn5CCO6)CC4)C3)cc2)CC1` [Compound 305], in that order: under 0.05 µM and under 0.05 µM.
In the case of `CC(C)(N)C=C(C#N)C(=O)Nc1ccc(N2CC(N3CCN(c4ccc5c(c4)-c4nc(N6C(=O)OC[C@H]6C(F)F)cn4CCO5)CC3)C2)c(F)c1` [Compound 224], the half-inhibitory concentration (IC50) in assay [1] (setting [5]) and in assay [2] (setting [6]) was under 0.05 µM in each case.
Take `CC(C)(C)C=C(C#N)C(=O)Nc1ccc(N2CC(N3CCN(c4ccc5c(c4)-c4nc(N6C(=O)OC[C@H]6C(F)F)cn4CCO5)CC3)C2)cc1` [Compound 136]: the results for the IC50 in assay [1] (setting [3]) and in assay [2] (setting [4]) were 0.029 µM and 0.071 µM, respectively.
Regarding `C=CC(=O)Nc1ccc(N2CC(N3CCN(c4ccc5c(c4)-c4nc(-c6nc(C)nn6C(C)C)cn4CCO5)CC3)C2)c(F)c1` [Compound 376], the IC50 in assay [1] (setting [5]) and in assay [2] (setting [6]) was under 0.05 µM in each case.
For `CNC(C)(C)C=C(C#N)C(=O)Nc1ccc(N2CC(N3CCN(c4ccc5c(c4)-c4nc(N6C(=O)OC[C@H]6C(F)F)cn4CCO5)CC3)C2)cc1Cl` [Compound 359], the IC50 in assay [1] (setting [5]) and in assay [2] (setting [6]) was under 0.05 µM throughout.
For `CC(=O)NC(C)(C)C=C(C#N)C(=O)Nc1ccc(N2CC(N3CCN(c4ccc5c(c4)-c4nc(N6C(=O)OC[C@H]6C(F)F)cn4CCO5)CC3)C2)cc1` [Compound 325], the IC50 in assay [1] (setting [5]) and in assay [2] (setting [6]) was under 0.05 µM in each case.
